Laboratory results published in US20150246888A1, “ENOYL REDUCTASE INHIBITORS WITH ANTIBACTERIAL ACTIVITY” (priority 2012, published 2015).
≈ marks a conversion by molar mass, not a printed value. Read-outs that look alike come from different tables or passages of the source.

Key:
[1] = system: S. aureus; test: Cell viability as a function of time (measured with depolarization); type: cell-based
[2] = system: S. aureus (ATCC number 29213); test: microbe, parasite or virus in culture; type: cell-based
[3] = system: S. aureus membrane; test: Membrane depolarization as a function of time; type: cell-based
[4] = target: FtuFabI (Francisella tularensis subsp. tularensis, UniProt Q5NGQ3); test: biochemical; design: species or system F. tularensis subsp. tularensis Schu4
[5] = system: F. tularensis, strain Utah 112; test: microbe, parasite or virus in culture; type: cell-based; conditions: Francisella tularensis, UTAH112
[6] = system: E. coli TolC-, an efflux defective mutant; test: microbe, parasite or virus in culture; type: cell-based; conditions: Escherichia coli
[7] = system: E. coli (BW251113 strain); test: microbe, parasite or virus in culture; type: cell-based; conditions: Escherichia coli
[8] = system: MRSA (ATCC number 43300); test: microbe, parasite or virus in culture; type: cell-based, methicillin-resistant Staphylococcus aureus; conditions: Staphylococcus aureus
[9] = system: B. anthracis, ΔANR strain; test: microbe, parasite or virus in culture; type: cell-based; conditions: Bacillus anthracis
[10] = target: FabI (Francisella tularensis subsp. tularensis, UniProt Q5NGQ3); test: biochemical; design: species or system F. tularensis subsp. tularensis Schu4
[11] = read-out: IC50, Inhibition of FabI

Sequence of FtuFabI (Q5NGQ3 1-260 limits assumed): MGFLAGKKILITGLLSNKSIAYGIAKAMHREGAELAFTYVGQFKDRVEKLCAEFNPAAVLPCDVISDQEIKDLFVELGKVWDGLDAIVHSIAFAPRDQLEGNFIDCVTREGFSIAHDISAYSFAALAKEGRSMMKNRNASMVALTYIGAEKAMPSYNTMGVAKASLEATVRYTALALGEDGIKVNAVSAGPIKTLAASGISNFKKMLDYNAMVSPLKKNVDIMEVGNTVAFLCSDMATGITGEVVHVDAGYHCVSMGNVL
Sequence of FabI (Q5NGQ3 1-260 limits assumed): as above

SMILES | MIC ([2]; Staphylococcus aureus) | MIC [5] | MIC [6] | MIC [7] | MIC [8] | MIC [9] | IC50 [4] | other results
CC1(C)S[C@@H]2[C@H](NC(=O)[C@H](N)c3ccccc3)C(=O)N2[C@H]1C(=O)O [Ampicillin, reference compound] | – | – | – | – | – | – | – | Cell viability (done at 2X MIC) [1]: bactericidal; MIC [2]: 0.4 µg/mL (≈ 1.14 µM); Depolarization (done at 2X MIC) [3]: No depolarization
N#CC(C#N)=NNc1cccc(Cl)c1 [CCCP, carbonyl cyanide m-chlorophenylhydrazone, reference compound] | 1 µg/mL (≈ 4.89 µM) | – | – | – | – | – | – | Cell viability (done at 2X MIC) [1]: bactericidal; Depolarization (done at 2X MIC) [3]: Highly depolarizing
Cc1cc2ncn(Cc3ccc(Cl)c(Cl)c3)c2cc1C [Compound 1, 1-(3,4-dichlorobenzyl)-5,6-dimethyl-1H-benzo[d]imidazole] | 25 µg/mL (≈ 81.9 µM) | – | – | – | – | – | – | Cell viability (done at 2X MIC) [1]: Bactericidal intially but cells recover and compound is not lethal overnight; Depolarization (done at 2X MIC) [3]: Depolarization seen initially in the first 60 min; IC50 [4, 11]: 300 nM
Cc1cc2ncn(C(C)c3ccc(Cl)c(Cl)c3)c2cc1C (centres unmarked) [Compound 2, 1-(1-(3,4-dichlorophenyl)ethyl)-5,6-dimethyl-1H-benzo[d]imidazole] | 12.5 µg/mL (≈ 39.2 µM) | > 12.5 µg/mL | 6.3 µg/mL (≈ 19.7 µM) | > 12.5 µg/mL | 12.5 µg/mL (≈ 39.2 µM) | 12.5 µg/mL (≈ 39.2 µM) | – | MBC [6]: 12.5 µg/mL (≈ 39.2 µM); IC50 [4, 11]: 370 nM
CC(c1ccc(Cl)c(Cl)c1)n1cnc2cc3c(cc21)CCC3 (centres unmarked) [Compound 3, 1-(1-(3,4-dichlorophenyl)ethyl)-1,5,6,7-tetrahydroindeno[5,6-d]imidazole] | 5.5 µg/mL (≈ 16.6 µM) | 3.9 µg/mL (≈ 11.8 µM) | 3.1 µg/mL (≈ 9.36 µM) | > 12.5 µg/mL | 6.3 µg/mL (≈ 19 µM) | 3.9 µg/mL (≈ 11.8 µM) | 43 nM | Cell viability (done at 2X MIC) [1]: Bacteriostatic; MIC [2]: 5.5 µg/mL (≈ 16.6 µM); MBC ([2]; Staphylococcus aureus): > 25 µg/mL; MBC [5]: 9.4 µg/mL (≈ 28.4 µM); MBC [6]: 12.5 µg/mL (≈ 37.7 µM); MBC [8]: 12.5 µg/mL (≈ 37.7 µM); Depolarization (done at 2X MIC) [3]: Initially depolarizing (in first 60 min) but cells ‘recover’ and regain polarization compared to control with no compound; MBC [9]: 4.7 µg/mL (≈ 14.2 µM)
CC(c1ccc(Cl)c(Cl)c1)n1cnc2cc3c(cc21)CCCC3 (centres unmarked) [Compound 4, 1-(1-(3,4-dichlorophenyl)ethyl)-5,6,7,8-tetrahydro-1H-naphtho[2,3-d]imidazole] | 3.1 µg/mL (≈ 8.98 µM) | 3.1 µg/mL (≈ 8.98 µM) | 3.1 µg/mL (≈ 8.98 µM) | > 12.5 µg/mL | 3.1 µg/mL (≈ 8.98 µM) | 3.1 µg/mL (≈ 8.98 µM) | 630 nM | Cell viability (done at 2X MIC) [1]: Clearly bacteriostatic; MIC [2]: 3.1 µg/mL (≈ 8.98 µM); MBC ([2]; Staphylococcus aureus): 25 µg/mL (≈ 72.4 µM); Ki [10]: 570 ± 140 nM; MBC [5]: 25 µg/mL (≈ 72.4 µM); MBC [6]: > 25 µg/mL; MBC [8]: 25 µg/mL (≈ 72.4 µM); Depolarization (done at 2X MIC) [3]: Initially depolarizing (in first 60 min) but cells ‘recover’ and regain polarization compared to control with no compound; Ki [4]: 510 nM; MBC [9]: 3.1 µg/mL (≈ 8.98 µM)
CC(c1ccc(Cl)c(Cl)c1)n1cnc2cc3c(cc21)CC(C)(C)C3 (centres unmarked) [Compound 5, 1-(1-(3,4-dichlorophenyl)ethyl)-6,6-dimethyl-1,5,6,7-tetrahydroindeno[5,6-d]imidazole] | 4.7 µg/mL (≈ 13.1 µM) | > 12.5 µg/mL | > 12.5 µg/mL | > 12.5 µg/mL | 4.7 µg/mL (≈ 13.1 µM) | > 12.5 µg/mL | – | MBC ([2]; Staphylococcus aureus): > 12.5 µg/mL; MBC [8]: > 12.5 µg/mL; IC50 [4, 11]: 240 nM
CC(c1ccc(Cl)c(Cl)c1)n1cnc2cc3c(cc21)COC3 (centres unmarked) [Compound 6, 1-(1-(3,4-dichlorophenyl)ethyl)-5,7-dihydro-1H-isobenzofuro[5,6-d]imidazole] | > 12.5 µg/mL | > 12.5 µg/mL | > 12.5 µg/mL | > 12.5 µg/mL | > 12.5 µg/mL | > 12.5 µg/mL | – | IC50 [4, 11]: 890 nM
COc1ccc(Cn2cnc3cc(C)c(C)cc32)cc1C [Compound 7, 1-(4-methoxy-3-methylbenzyl)-5,6-dimethyl-1H-benzo[d]imidazole] | > 12.5 µg/mL | > 12.5 µg/mL | 12.5 µg/mL (≈ 44.6 µM) | > 12.5 µg/mL | > 12.5 µg/mL | > 12.5 µg/mL | 250 nM | –
COc1ccc(Cn2cnc3cc4c(cc32)CCC4)cc1C [Compound 8, 1-(4-methoxy-3-methylbenzyl)-1,5,6,7-tetrahydroindeno[5,6-d]imidazole] | > 12.5 µg/mL | 5.5 µg/mL (≈ 18.8 µM) | 12.5 µg/mL (≈ 42.8 µM) | > 12.5 µg/mL | > 12.5 µg/mL | > 12.5 µg/mL | – | MBC [5]: 12.5 µg/mL (≈ 42.8 µM); IC50 [4, 11]: 5 nM
COc1ccc(Cn2cnc3cc4c(cc32)CCCC4)cc1OC [Compound 10, 1-(3,4-dimethoxybenzyl)-5,6,7,8-tetrahydro-1H-naphtho[2,3-d]imidazole] | > 12.5 µg/mL | > 12.5 µg/mL | > 12.5 µg/mL | > 12.5 µg/mL | > 12.5 µg/mL | > 12.5 µg/mL | – | Ki ([10]; read-out: Ki^1 (Experimental Ki)): 1430 ± 270 nM; IC50 ([4]; read-out: IC50): 1360 nM; IC50 [4, 11]: 1360 nM; Ki ([4]; read-out: Ki^2 (Calculated using the Cheng-Prusoff Equation)): 1100 nM
COc1ccc(Cn2cnc3cc4c(cc32)CC(C)(C)C4)cc1C [Compound 11, 1-(4-methoxy-3-methylbenzyl)-6,6-dimethyl-1,5,6,7-tetrahydroindeno[5,6-d]imidazole] | > 12.5 µg/mL | > 12.5 µg/mL | > 12.5 µg/mL | > 12.5 µg/mL | > 12.5 µg/mL | > 12.5 µg/mL | 14 nM | –
COc1ccc(Cn2cnc3cc4c(cc32)CC(C)(C)C4)cc1OC [Compound 12, 1-(3,4-dimethoxybenzyl)-6,6-dimethyl-1,5,6,7-tetrahydroindeno[5,6-d]imidazole] | > 12.5 µg/mL | > 12.5 µg/mL | > 12.5 µg/mL | > 12.5 µg/mL | > 12.5 µg/mL | > 12.5 µg/mL | 71 nM | –
CC1(C)Cc2cc3ncn(Cc4ccc5c(c4)OCO5)c3cc2C1 [Compound 13, 1-(benzo[d][1,3]dioxol-5-ylmethyl)-6,6-dimethyl-1,5,6,7-tetrahydroindeno[5,6-d]imidazole] | > 12.5 µg/mL | > 12.5 µg/mL | 12.5 µg/mL (≈ 39 µM) | > 12.5 µg/mL | > 12.5 µg/mL | > 12.5 µg/mL | 29 nM | –
CC1(C)Cc2cc3ncn(Cc4ccc5c(c4)CC[C@@H]5O)c3cc2C1 [Compound 15, (S)-5-((6,6-dimethyl-6,7-dihydroindeno[5,6-d]imidazol-1(5H)-yl)methyl)-2,3-dihydro-1H-inden-1-ol] | > 12.5 µg/mL | > 12.5 µg/mL | > 12.5 µg/mL | > 12.5 µg/mL | > 12.5 µg/mL | > 12.5 µg/mL | 41 nM | –
COc1ccc(Cn2cnc3cc(C)c(C)cc32)cc1 [Compound 16, 1-(4-methoxybenzyl)-5,6-dimethyl-1H-benzo[d]imidazole] | – | – | – | – | – | – | 4700 nM | –
Cc1cc2ncn(Cc3ccc4c(c3)OCO4)c2cc1C [Compound 17, 1-(benzo[d][1,3]dioxol-5-ylmethyl)-5,6-dimethyl-1H-benzo[d]imidazole] | – | – | – | – | – | – | 4400 nM | –
Cc1cc2ncn(Cc3ccc(O)c(C)c3)c2cc1C [Compound 18, 4-((5,6-dimethyl-1H-benzo[d]imidazol-1-yl)methyl)-2-methylphenol] | – | – | – | – | – | – | 1300 nM | –
c1cc2c(cc1Cn1cnc3cc4c(cc31)CCC4)OCO2 [Compound 19, 1-(benzo[d][1,3]dioxol-5-ylmethyl)-1,5,6,7-tetrahydroindeno[5,6-d]imidazole] | 9.4 µg/mL (≈ 32.2 µM) | 6.3 µg/mL (≈ 21.6 µM) | > 12.5 µg/mL | > 12.5 µg/mL | 10.9 µg/mL (≈ 37.3 µM) | > 12.5 µg/mL | 2200 nM | MBC ([2]; Staphylococcus aureus): > 25 µg/mL; MBC [5]: 37.5 µg/mL (≈ 128 µM); MBC [8]: > 25 µg/mL
COc1ccc(Cn2cnc3cc4c(cc32)CCC4)cc1 [Compound 20, 1-(4-methoxybenzyl)-1,5,6,7-tetrahydroindeno[5,6-d]imidazole] | > 12.5 µg/mL | 5.5 µg/mL (≈ 19.8 µM) | > 12.5 µg/mL | > 12.5 µg/mL | > 12.5 µg/mL | > 12.5 µg/mL | 840 nM | MBC [5]: 37.5 µg/mL (≈ 135 µM)
Nc1ccc(Cn2cnc3cc4c(cc32)CCC4)cc1 [Compound 21, 4-((6,7-dihydroindeno[5,6-d]imidazol-1(5H)-yl)methyl)aniline] | > 12.5 µg/mL | > 12.5 µg/mL | > 12.5 µg/mL | > 12.5 µg/mL | > 12.5 µg/mL | > 12.5 µg/mL | 12000 nM | –
COc1ccc(Cn2cnc3cc(C)c(C)cc32)cc1OC [Compound 22, 1-(3,4-dimethoxybenzyl)-5,6-dimethyl-1H-benzo[d]imidazole] | – | – | – | – | – | – | 7600 nM | –
COc1ccc(Cn2cnc3cc4c(cc32)CCC4)cc1OC [Compound 23, 1-(3,4-dimethoxybenzyl)-1,5,6,7-tetrahydroindeno[5,6-d]imidazole] | – | – | – | – | – | – | 5900 nM | –
COc1ccc(Cn2cnc3cc4c(cc32)CCCC4)cc1 [Compound 24, 1-(4-methoxybenzyl)-5,6,7,8-tetrahydro-1H-naphtho[2,3-d]imidazole] | > 12.5 µg/mL | 4.7 µg/mL (≈ 16.1 µM) | 12.5 µg/mL (≈ 42.8 µM) | > 12.5 µg/mL | > 12.5 µg/mL | > 12.5 µg/mL | 330 nM | MBC [5]: 18.8 µg/mL (≈ 64.3 µM); MBC [6]: > 25 µg/mL
Oc1cc(Cl)ccc1Oc1ccc(Cl)cc1Cl [Triclosan, reference compound] | 0.4 µg/mL (≈ 1.38 µM) | – | – | – | – | – | – | Cell viability (done at 2X MIC) [1]: Possibly bacteriostatic initially but then bactericidal after overnight incubation; Depolarization (done at 2X MIC) [3]: Strongly depolarizing
